Measurements published in patent publication US11046709B2, “Fused 1,4-diazepines as BET bromodomain inhibitors” (THE REGENTS OF THE UNIVERSITY OF MICHIGAN, priority 2017, dated 2021).

What was measured:
MDA-MB-231 = assay: Cell growth inhibition, 4-day proliferation assay, MDA-MB-231; type: cell-based; settings: Homo sapiens, MDA-MB-231; WST-8 assay, Table 7; read-out: Cell growth inhibition (IC50 (nM)) MDA-MB-231
In short: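 Cells seeded at 3,000-10,000/well, treated with serially diluted compounds 4 days at 37 °C, 5% CO2. Viability by WST-8 (10% v/v, 1-2 h, A450); readings normalized to DMSO-treated cells, IC50 by four-parameter nonlinear regression.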

recombinant BRD4 BD1 = molecular target: T1, recombinant BRD4 BD1 (Homo sapiens, UniProt O60885); assay: Competitive fluorescence-polarization (FP) binding assay, BRD4 BD1; settings: competitive FP, Table 6; read-out: IC50 as determinined in FP assays BRD4 BD1
T1 construct: for recombinant BRD4 BD1 and BRD4 BD2 proteins
Method: Fluorescence Polarization (FP) competitive binding studies were carried out using a FAM labeled fluorescent probe, see, e.g., Cpd. No. 350 of US 2014/0256706, to determine binding affinities of representative Compounds of the Disclosure for recombinant BRD4 BD1 and BRD4 BD2 proteins. Equilibrium dissociation constants (Kd) values of the fluorescent probe to BRD4 BD1 and BD2 proteins were determined from protein saturation experiments by monitoring the total fluorescence polarization of mixtures composed with the fluorescent probe at a fixed concentration and proteins with increasing concentrations up to full saturation. Serial dilutions of testing proteins were mixed with the fluorescent probe to a final volume of 200 μl in the assay buffer (100 mM phosphate buffer, pH=6.5, 0.01% Triton X-100 (Sigma, 282103) being added right before assays). Final fluorescent probe concentration was 1.5 nM for both proteins. Plates were incubated at room temperature for 30 minutes with gentle shaking to assure equilibrium. FP values in millipolarization units (mP) were measured using the Infinite M-1000 plate reader (Tecan U.S., Research Triangle Park, N.C.) in Microfluor 1 96-well, black, round-bottom plates (Thermo Scientific, Waltham, Mass.) at an excitation wavelength of 485 nm and an emission wavelength of 530 nm. Kd values of the fluorescent probe, which were calculated by fitting the sigmoidal dose-dependent FP increases as a function of protein concentrations using Graphpad Prism 6.0 software (Graphpad Software, San Diego, Calif.), are 5.5 and 3.0 nM to BDR4 BD1 and 2, respectively.
The IC50 and Ki values of compounds were determined in a competitive binding experiment. See US 2014/0256706. Mixtures of 10 μl of the tested compounds in assay buffer with 40% Ethylene Glycol and 190 μl of preincubated protein/probe complex solution in the assay buffer (100 mM potassium phosphate, pH 6.5, 0.01% Triton X-100) were added into assay plates which were incubated at room temperature for 30 minutes with gentle shaking. Final concentrations of proteins were 10 and 6 nM in assays for BRD4 BD1 and BD2, respectively. Final probe concentration is 1.5 nM in both assays. Negative controls containing protein/probe complex only (equivalent to 0% inhibition), and positive controls containing only free probes (equivalent to 100% inhibition), were included in each assay plate. FP values were measured as described above. IC50 values were determined by nonlinear regression fitting of the competition curves. Instead of being calculated from IC50 values as described before. Ki values of competitive inhibitors were obtained directly by nonlinear regression fitting as well, based upon the Kd values of the probe to different proteins, and concentrations of the proteins and probes in the competitive assays (US 2014/0256706; Wang, FEBS Lett. 360:111 (1995); Zhang et al., Analytical Biochemistry, 331:138 (2004)).
Representative compounds in Table 5 were evaluated for their binding affinities to BRD4 BD1 and BD2 proteins using the Competitive Fluorescence-Polarization (FP) Assays described in Example 6, with the data included in Table 6.

MOLM-13 = assay: Cell growth inhibition, 4-day proliferation assay, MOLM-13; type: cell-based; settings: Homo sapiens, MOLM-13, WST-8 assay, Table 7; read-out: Cell growth inhibition (IC50 (nM)) MOLM-13
recombinant BRD4 BD2 = molecular target: T2, recombinant BRD4 BD2 (Homo sapiens, UniProt O60885); assay: Competitive fluorescence-polarization (FP) binding assay, BRD4 BD2; settings: competitive FP, Table 6; read-out: IC50 as determinined in FP assays BRD4 BD2
T2 construct: for recombinant BRD4 BD1 and BRD4 BD2 proteins

[1] = Plasma exposure after oral gavage in mice, LC-MS/MS; type: in vivo; settings: mouse, plasma, mice, oral gavage 25 mg/kg; for concentration at 1 h: read-out: Plasma concentration (ng/mL) 1 h; for concentration at 3 h: read-out: Plasma concentration (ng/mL) 3 h; for concentration at 6 h: read-out: Plasma concentration (ng/mL) 6 h
Method: For a number of representative compounds in Table 5, their plasma exposures with oral administration in mice via oral gavage were determined by LC-MS/MS, with the data shown in Table 9.

SMILES	IC50 (MDA-MB-231) [nM]	IC50 (recombinant BRD4 BD1) [nM]	IC50 (MOLM-13) [nM]	IC50 (recombinant BRD4 BD2) [nM]	concentration at 1 h [1] [ng/mL]	concentration at 3 h [1] [ng/mL]	concentration at 6 h [1] [ng/mL]
Cc1nnc(C[C@@H]2N=C(c3ccc(Cl)cc3)c3c(sc(C#CC(C)(C)O)c3C)-n3c(C)nnc32)o1 [Compound 144, (S)-4-(4-(4-chlorophenyl)-3,9-dimethyl-6-((5-methyl-1,3,4-oxadiazol-2-yl)methyl)-6H-thieno[3,2-f][1,2,4]triazolo[4,3-a][1,4]diazepin-2-yl)-2-methylbut-3-yn-2-ol]	288	21.8	36.4	26.4	4160	7580	1120
Cc1nnc(C[C@@H]2N=C(c3ccc(Cl)cc3)c3c(sc(C#CC4CC4)c3C)-n3c(C)nnc32)o1 [Compound 143, (S)-2-((4-(4-chlorophenyl)-2-(cyclopropylethynyl)-3,9-dimethyl-6H-thieno[3,2-f][1,2,4]triazolo[4,3-a][1,4]diazepin-6-yl)methyl)-5-methyl-1,3,4-oxadiazole]	6.59	8.86	6.06	21.6	3170	2700	3670
CCNC(=O)C[C@@H]1N=C(c2ccc(Cl)cc2)c2c(sc(C#Cc3ccccn3)c2C)-n2c(C)nnc21 [Compound 110, (S)-2-(4-(4-chlorophenyl)-3,9-dimethyl-2-(pyridin-2-ylethynyl)-6H-thieno[3,2-f][1,2,4]triazolo[4,3-a][1,4]diazepin-6-yl)-N-ethylacetamide]	310 ± 100	8.5	47.7	27.5	1540	1160	123
Cc1nnc(C[C@@H]2N=C(c3ccc(Cl)cc3)c3c(sc(C#CC4CCN(C)CC4)c3C)-n3c(C)nnc32)o1 [Compound 175, (S)-2-((4-(4-chlorophenyl)-3,9-dimethyl-2-((1-methylpiperidin-4-yl)ethynyl)-6H-thieno[3,2-f][1,2,4]triazolo[4,3-a][1,4]diazepin-6-yl)methyl)-5-methyl-1,3,4-oxadiazole]	3.96	31.8	5	93.2	413	384	68
Cc1c(C#Cc2ccccn2)sc2c1C(c1ccc(Cl)cc1)=N[C@@H](CC(=O)Nc1ccc(O)cc1)c1nnc(C)n1-2 [Compound 125, (S)-2-(4-(4-chlorophenyl)-3,9-dimethyl-2-(pyridin-2-ylethynyl)-6H-thieno[3,2-f][1,2,4]triazolo[4,3-a][1,4]diazepin-6-yl)-N-(4-hydroxyphenyl)acetamide]	132	10.2	31	13.9	2520	407	83
Cc1c(C#Cc2ccccn2)sc2c1C(c1ccc(Cl)cc1)=N[C@@H](CC(=O)N1CCN(C)CC1)c1nnc(C)n1-2 [Compound 119, (S)-2-(4-(4-chlorophenyl)-3,9-dimethyl-2-(pyridin-2-ylethynyl)-6H-thieno[3,2-f][1,2,4]triazolo[4,3-a][1,4]diazepin-6-yl)-1-(4-methylpiperazin-1-yl)ethan-1-one]	38.1	6.9	20.9	140	632	370	52
Cc1c(C#Cc2ccccn2)sc2c1C(c1ccc(Cl)cc1)=N[C@@H](CC(N)=O)c1nnc(C)n1-2 [Compound 109, (S)-2-(4-(4-chlorophenyl)-3,9-dimethyl-2-(pyridin-2-ylethynyl)-6H-thieno[3,2-f][1,2,4]triazolo[4,3-a][1,4]diazepin-6-yl)acetamide]	2.57	3.8	7.2	282	2170	609	184
Cc1c(C#Cc2ccccn2)sc2c1C(c1ccc(Cl)cc1)=N[C@@H](CC(=O)N1CCOCC1)c1nnc(C)n1-2 [Compound 126, (S)-2-(4-(4-chlorophenyl)-3,9-dimethyl-2-(pyridin-2-ylethynyl)-6H-thieno[3,2-f][1,2,4]triazolo[4,3-a][1,4]diazepin-6-yl)-1-morpholinoethan-1-one]	60.7	8.7	13.5	27.8	2910	599	473
Cc1nnc(C[C@@H]2N=C(c3ccc(Cl)cc3)c3c(sc(C#CC4CCNCC4)c3C)-n3c(C)nnc32)o1 [Compound 174, (S)-2-((4-(4-chlorophenyl)-3,9-dimethyl-2-(piperidin-4-ylethynyl)-6H-thieno[3,2-f][1,2,4]triazolo[4,3-a][1,4]diazepin-6-yl)methyl)-5-methyl-1,3,4-oxadiazole]	9.43	49.9	3.1	46	56	12	3
Cc1c(C#Cc2ccccn2)sc2c1C(c1ccc(Cl)cc1)=N[C@@H](CC(=O)NC1CCNCC1)c1nnc(C)n1-2 [Compound 131, (S)-2-(4-(4-chlorophenyl)-3,9-dimethyl-2-(pyridin-2-ylethynyl)-6H-thieno[3,2-f][1,2,4]triazolo[4,3-a][1,4]diazepin-6-yl)-N-(piperidin-4-yl)acetamide]	243	12.6	188	26.9	–	–	–
Cc1c(C#Cc2ccc(N)nc2)sc2c1C(c1ccc(Cl)cc1)=N[C@@H](CC(=O)N1CCN(C)CC1)c1nnc(C)n1-2 [Compound 120, (S)-2-(2-((6-aminopyridin-3-yl)ethynyl)-4-(4-chlorophenyl)-3,9-dimethyl-6H-thieno[3,2-f][1,2,4]triazolo[4,3-a][1,4]diazepin-6-yl)-1-(4-methylpiperazin-1-yl)ethan-1-one]	9.74	5.3	9.64	4.9	–	–	–
